US7723071B2 (priority 1992, dated 2010)
Peptide text beside a SMILES is read from it.

Key:
[1] = test system: opiate receptors
Excerpt: The purification of mono-iodinated from di-iodinated and non-iodinated DADLE by the HPLC step yields a ligand with very high specific activity (approximately 2000 Ci/mmol).

[2] = target: T1, DOR-2 (mMOR-1) mu receptor (Mus musculus, UniProt P42866, H54D/R258Q/R47P/S53N/V245G); assay type: binding, murine
T1 construct: expressed in transfected cells

[3] = target: DOR-1 clone (delta opioid receptor) (Mus musculus, UniProt P32300, V68C)
[4] = target: receptor encoded by the DOR-1 clone (delta opioid receptor) (Mus musculus, UniProt P32300, V68C)
Sequence of receptor encoded by the DOR-1 clone (delta opioid receptor) (P32300 whole entry V68C): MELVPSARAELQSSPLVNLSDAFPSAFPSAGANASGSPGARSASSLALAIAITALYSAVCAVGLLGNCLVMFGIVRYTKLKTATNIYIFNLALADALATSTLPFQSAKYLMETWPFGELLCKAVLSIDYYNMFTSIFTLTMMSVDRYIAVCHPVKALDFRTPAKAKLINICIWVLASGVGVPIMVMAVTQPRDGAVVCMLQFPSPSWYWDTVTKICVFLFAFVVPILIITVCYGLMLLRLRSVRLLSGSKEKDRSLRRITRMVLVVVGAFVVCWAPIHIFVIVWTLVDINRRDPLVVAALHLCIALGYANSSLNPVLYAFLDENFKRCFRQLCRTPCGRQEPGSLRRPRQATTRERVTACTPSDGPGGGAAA

T1 sequence (P42866 whole entry R47P/S53N/H54D/V245G/R258Q): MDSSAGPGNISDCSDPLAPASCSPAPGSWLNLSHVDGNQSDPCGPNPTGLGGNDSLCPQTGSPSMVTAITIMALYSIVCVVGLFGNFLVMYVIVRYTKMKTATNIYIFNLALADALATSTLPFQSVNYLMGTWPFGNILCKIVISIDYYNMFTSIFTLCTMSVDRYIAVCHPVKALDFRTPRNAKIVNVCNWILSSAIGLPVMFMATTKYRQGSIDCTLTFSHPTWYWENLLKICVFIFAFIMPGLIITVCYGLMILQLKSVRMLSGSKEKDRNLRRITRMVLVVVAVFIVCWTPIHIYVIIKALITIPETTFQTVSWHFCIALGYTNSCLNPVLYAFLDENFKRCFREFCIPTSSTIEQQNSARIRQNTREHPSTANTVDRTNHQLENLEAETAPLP
Sequence of DOR-1 clone (delta opioid receptor) (P32300 whole entry V68C): as the sequence (P32300 whole entry V68C) above

Row | Molecule | binding affinity compared with DADLE [1] | displacement of 3H-DPN [2] | displacement of 125I-DADLE binding [3] | displacement of 3H-diprenorphine [4] | displacement of 3H-diprenorphine, rank in decreasing order of affinity [4]
1 | mono-^125I-2dAla, 5dLeu enkephalin [^125I-DADLE] | slightly lower |  |  |  | 
2 | NC(=O)[C@@H]1CCCN1C(=O)[C@H](Cc1ccccc1)NC(=O)[C@@H]1CCCN1C(=O)[C@@H](N)Cc1ccc(O)cc1 [morphiceptin] (H-YPFP-NH2) |  | displacement of ^3H-DPN by nanomolar concentrations |  |  | 
3 | C[C@@H](NC(=O)[C@@H](N)Cc1ccc(O)cc1)C(=O)NCC(=O)N(C)[C@@H](Cc1ccccc1)C(=O)NCCO [DAGO, D-Alka^2-N-MePhe^4-Gly-ol^5-enkephalin] |  | displacement of ^3H-DPN by nanomolar concentrations | did not displace | Only weak displacement | 
4 | CN1CC[C@]23CCCC[C@H]2[C@H]1Cc1ccc(O)cc13 [levorphanol] |  |  | did displace | displaced | in decreasing order of affinity, was observed with diprenorphine, etorphine, levorphanol and morphine
